In patent US12622875B2, “Dosage form comprising an alkaline agent and an enteric coating layer” (Evonik Operations GmbH, priority 2019, dated 2026):
Where a name gives a salt, the structure may show the parent alone.

Key:
[1] = Pantoprazole Sodium solution stability at different pH and temperature (HPLC % assay); assay type: physicochemical
[2] = Benazepril HCl API solution stability at different pH and temperature (HPLC % assay); assay type: physicochemical

## COc1ccnc(C[S+]([O-])c2nc3ccc(OC(F)F)cc3[nH]2)c1OC (centres unmarked) [Pantoprazole Sodium]
[1]; pH 1.2, 22° C., 15 min
  % Assay of Pantoprazole Sodium: 27%
[1]; pH 1.2, 22° C., 30 min
  % Assay of Pantoprazole Sodium: 13%
[1]; pH 1.2, 22° C., 60 min
  % Assay of Pantoprazole Sodium: 7%
[1]; pH 1.2, 22° C., 120 min
  % Assay of Pantoprazole Sodium: 5%
[1]; pH 1.2, 22° C., Initial
  % Assay of Pantoprazole Sodium: 88%
[1]; pH 1.2, 40° C., 15 min
  % Assay of Pantoprazole Sodium: 17%
[1]; pH 1.2, 40° C., 30 min
  % Assay of Pantoprazole Sodium: 6%
[1]; pH 1.2, 40° C., 60 min
  % Assay of Pantoprazole Sodium: 4%
[1]; pH 1.2, 40° C., 120 min
  % Assay of Pantoprazole Sodium: 3%
[1]; pH 3.0, 22° C., 15 min
  % Assay of Pantoprazole Sodium: 32%
[1]; pH 3.0, 22° C., 30 min
  % Assay of Pantoprazole Sodium: 20%
[1]; pH 3.0, 22° C., 60 min
  % Assay of Pantoprazole Sodium: 5%
[1]; pH 3.0, 22° C., 120 min
  % Assay of Pantoprazole Sodium: 1%
[1]; pH 3.0, 22° C., Initial
  % Assay of Pantoprazole Sodium: 81%
[1]; pH 3.0, 40° C., 15 min
  % Assay of Pantoprazole Sodium: 3%
[1]; pH 3.0, 40° C., 30 min
  % Assay of Pantoprazole Sodium: 2%
[1]; pH 3.0, 40° C., 60 min
  % Assay of Pantoprazole Sodium: 2%
[1]; pH 3.0, 40° C., 120 min
  % Assay of Pantoprazole Sodium: 1%
[1]; pH 4.5, 22° C., 15 min
  % Assay of Pantoprazole Sodium: 97%
[1]; pH 4.5, 22° C., 30 min
  % Assay of Pantoprazole Sodium: 96%
[1]; pH 4.5, 22° C., 60 min
  % Assay of Pantoprazole Sodium: 94%
[1]; pH 4.5, 22° C., 120 min
  % Assay of Pantoprazole Sodium: 89%
[1]; pH 4.5, 22° C., Initial
  % Assay of Pantoprazole Sodium: 98%
[1]; pH 4.5, 40° C., 15 min
  % Assay of Pantoprazole Sodium: 92%
[1]; pH 4.5, 40° C., 30 min
  % Assay of Pantoprazole Sodium: 89%
[1]; pH 4.5, 40° C., 60 min
  % Assay of Pantoprazole Sodium: 79%
[1]; pH 4.5, 40° C., 120 min
  % Assay of Pantoprazole Sodium: 64%
[1]; pH 5.5, 22° C., 15 min
  % Assay of Pantoprazole Sodium: 98%
[1]; pH 5.5, 22° C., 30 min
  % Assay of Pantoprazole Sodium: 92%
[1]; pH 5.5, 22° C., 60 min
  % Assay of Pantoprazole Sodium: 94%
[1]; pH 5.5, 22° C., 120 min
  % Assay of Pantoprazole Sodium: 88%
[1]; pH 5.5, 22° C., Initial
  % Assay of Pantoprazole Sodium: 98%
[1]; pH 5.5, 40° C., 15 min
  % Assay of Pantoprazole Sodium: 97%
[1]; pH 5.5, 40° C., 30 min
  % Assay of Pantoprazole Sodium: 86%
[1]; pH 5.5, 40° C., 60 min
  % Assay of Pantoprazole Sodium: 77%
[1]; pH 5.5, 40° C., 120 min
  % Assay of Pantoprazole Sodium: 53%

## CCOC(=O)[C@H](CCc1ccccc1)N[C@H]1CCc2ccccc2N(CC(=O)O)C1=O [Benazepril HCl]
[2]; pH 1.2, 22° C., Initial
  % Assay of Benazepril HCl: 101%
[2]; pH 1.2, 40° C., 2 Hour
  % Assay of Benazepril HCl: 100%
[2]; pH 1.2, 40° C., 4 Hour
  % Assay of Benazepril HCl: 100%
[2]; pH 1.2, 40° C., 24 Hour
  % Assay of Benazepril HCl: 99%
[2]; pH 3, 22° C., Initial
  % Assay of Benazepril HCl: 100%
[2]; pH 3, 40° C., 2 Hour
  % Assay of Benazepril HCl: 99%
[2]; pH 3, 40° C., 4 Hour
  % Assay of Benazepril HCl: 99%
[2]; pH 3, 40° C., 24 Hour
  % Assay of Benazepril HCl: 98%
[2]; pH 4, 22° C., Initial
  % Assay of Benazepril HCl: 100%
[2]; pH 4, 40° C., 2 Hour
  % Assay of Benazepril HCl: 99%
[2]; pH 4, 40° C., 4 Hour
  % Assay of Benazepril HCl: 99%
[2]; pH 4, 40° C., 24 Hour
  % Assay of Benazepril HCl: 98%
[2]; pH 7, 22° C., Initial
  % Assay of Benazepril HCl: 100%
[2]; pH 7, 40° C., 2 Hour
  % Assay of Benazepril HCl: 100%
[2]; pH 7, 40° C., 4 Hour
  % Assay of Benazepril HCl: 100%
[2]; pH 7, 40° C., 24 Hour
  % Assay of Benazepril HCl: 97%
[2]; pH 9, 22° C., Initial
  % Assay of Benazepril HCl: 101%
[2]; pH 9, 40° C., 2 Hour
  % Assay of Benazepril HCl: 99%
[2]; pH 9, 40° C., 4 Hour
  % Assay of Benazepril HCl: 99%
[2]; pH 9, 40° C., 24 Hour
  % Assay of Benazepril HCl: 91%
